In the NIST ThermoML archive (doi:10.1016/j.jct.2015.05.024):

Experiment: xn = mol fraction of the nth substance listed
Conditions: 100 kPa, Liquid; for mass density: Vibrating tube method; for speed of sound: Frequency=5 MHz, Pulse-echo method

OCCOCCOCCO [triethylene glycol] + O
Conditions | mass density [kg/m3] | speed of sound [m/s]
278.15 K, x1 = 0.0107 | 1013.31 | –
278.15 K, x1 = 0.02047 | 1024.39 | –
278.15 K, x1 = 0.03972 | 1043.4 | –
278.15 K, x1 = 0.04979 | 1051.97 | –
278.15 K, x1 = 0.06996 | 1066.64 | –
278.15 K, x1 = 0.09424 | 1080.57 | –
278.15 K, x1 = 0.1481 | 1100.99 | –
278.15 K, x1 = 0.2006 | 1112.25 | –
278.15 K, x1 = 0.2502 | 1118.67 | –
278.15 K, x1 = 0.2988 | 1122.73 | –
278.15 K, x1 = 0.3492 | 1125.61 | –
278.15 K, x1 = 0.3925 | 1127.4 | –
278.15 K, x1 = 0.4502 | 1129.18 | –
278.15 K, x1 = 0.4877 | 1130.08 | –
278.15 K, x1 = 0.5004 | 1130.35 | –
278.15 K, x1 = 0.5739 | 1131.64 | –
278.15 K, x1 = 0.58 | 1131.73 | –
278.15 K, x1 = 0.6465 | 1132.58 | –
278.15 K, x1 = 0.651 | 1132.63 | –
278.15 K, x1 = 0.7008 | 1133.14 | –
278.15 K, x1 = 0.7471 | 1133.54 | –
278.15 K, x1 = 0.7677 | 1133.7 | –
278.15 K, x1 = 0.82 | 1134.08 | –
278.15 K, x1 = 0.8623 | 1134.35 | –
278.15 K, x1 = 0.8792 | 1134.45 | –
278.15 K, x1 = 0.8975 | 1134.56 | –
278.15 K, x1 = 0.9203 | 1134.69 | –
278.15 K, x1 = 0.9514 | 1134.86 | –
278.15 K, x1 = 0.9692 | 1134.96 | –
278.15 K, x1 = 1 | 1135.14 | –
283.15 K, x1 = 0.0107 | 1012.65 | –
283.15 K, x1 = 0.02047 | 1023.4 | –
283.15 K, x1 = 0.03972 | 1041.83 | –
283.15 K, x1 = 0.04979 | 1050.13 | –
283.15 K, x1 = 0.06996 | 1064.35 | –
283.15 K, x1 = 0.09424 | 1077.85 | –
283.15 K, x1 = 0.1481 | 1097.71 | –
283.15 K, x1 = 0.2006 | 1108.7 | –
283.15 K, x1 = 0.2502 | 1115 | –
283.15 K, x1 = 0.2988 | 1119.01 | –
283.15 K, x1 = 0.3492 | 1121.86 | –
283.15 K, x1 = 0.3925 | 1123.64 | –
283.15 K, x1 = 0.4502 | 1125.41 | –
283.15 K, x1 = 0.4877 | 1126.3 | –
283.15 K, x1 = 0.5004 | 1126.57 | –
283.15 K, x1 = 0.5739 | 1127.85 | –
283.15 K, x1 = 0.58 | 1127.94 | –
283.15 K, x1 = 0.6465 | 1128.79 | –
283.15 K, x1 = 0.651 | 1128.84 | –
283.15 K, x1 = 0.7008 | 1129.34 | –
283.15 K, x1 = 0.7471 | 1129.73 | –
283.15 K, x1 = 0.7677 | 1129.89 | –
283.15 K, x1 = 0.82 | 1130.26 | –
283.15 K, x1 = 0.8623 | 1130.52 | –
283.15 K, x1 = 0.8792 | 1130.62 | –
283.15 K, x1 = 0.8975 | 1130.73 | –
283.15 K, x1 = 0.9203 | 1130.86 | –
283.15 K, x1 = 0.9514 | 1131.03 | –
283.15 K, x1 = 0.9692 | 1131.12 | –
283.15 K, x1 = 1 | 1131.29 | –
288.15 K, x1 = 0.000601 | – | 1469.7
288.15 K, x1 = 0.001928 | – | 1476.6
288.15 K, x1 = 0.00461 | – | 1490.1
288.15 K, x1 = 0.008532 | – | 1508.9
288.15 K, x1 = 0.0107 | 1011.72 | –
288.15 K, x1 = 0.01366 | – | 1532
288.15 K, x1 = 0.01989 | – | 1557.7
288.15 K, x1 = 0.02047 | 1022.17 | –
288.15 K, x1 = 0.02548 | – | 1578.7
288.15 K, x1 = 0.03449 | – | 1609.1
288.15 K, x1 = 0.03972 | 1040.07 | –
288.15 K, x1 = 0.04517 | – | 1639.9
288.15 K, x1 = 0.04979 | 1048.13 | –
288.15 K, x1 = 0.05131 | – | 1655.2
288.15 K, x1 = 0.05713 | – | 1668.3
288.15 K, x1 = 0.06261 | – | 1679.5
288.15 K, x1 = 0.0692 | – | 1691.5
288.15 K, x1 = 0.06996 | 1061.93 | –
288.15 K, x1 = 0.07424 | – | 1699.8
288.15 K, x1 = 0.08016 | – | 1708.5
288.15 K, x1 = 0.08433 | – | 1714.1
288.15 K, x1 = 0.08832 | – | 1719
288.15 K, x1 = 0.09298 | – | 1724.2
288.15 K, x1 = 0.09424 | 1075.05 | –
288.15 K, x1 = 0.09657 | – | 1727.8
288.15 K, x1 = 0.1007 | – | 1731.7
288.15 K, x1 = 0.1021 | – | 1732.9
288.15 K, x1 = 0.1045 | – | 1734.9
288.15 K, x1 = 0.1091 | – | 1738.4
288.15 K, x1 = 0.1208 | – | 1745.7
288.15 K, x1 = 0.1237 | – | 1747.2
288.15 K, x1 = 0.1281 | – | 1749.1
288.15 K, x1 = 0.1302 | – | 1750
288.15 K, x1 = 0.133 | – | 1751
288.15 K, x1 = 0.1394 | – | 1753
288.15 K, x1 = 0.1441 | – | 1754.2
288.15 K, x1 = 0.1474 | – | 1754.8
288.15 K, x1 = 0.1481 | 1094.39 | –
288.15 K, x1 = 0.1578 | – | 1756.3
288.15 K, x1 = 0.1678 | – | 1756.8
288.15 K, x1 = 0.1774 | – | 1756.7
288.15 K, x1 = 0.1904 | – | 1755.7
288.15 K, x1 = 0.2006 | 1105.14 | –
288.15 K, x1 = 0.2055 | – | 1753.5
288.15 K, x1 = 0.2329 | – | 1748
288.15 K, x1 = 0.2502 | 1111.33 | –
288.15 K, x1 = 0.2559 | – | 1742.5
288.15 K, x1 = 0.2967 | – | 1731.9
288.15 K, x1 = 0.2988 | 1115.27 | –
288.15 K, x1 = 0.3235 | – | 1725.1
288.15 K, x1 = 0.3492 | 1118.09 | –
288.15 K, x1 = 0.3699 | – | 1714
288.15 K, x1 = 0.3925 | 1119.86 | –
288.15 K, x1 = 0.4089 | – | 1705.2
288.15 K, x1 = 0.4502 | 1121.62 | –
288.15 K, x1 = 0.4877 | 1122.51 | –
288.15 K, x1 = 0.5004 | 1122.77 | –
288.15 K, x1 = 0.5029 | – | 1686.5
288.15 K, x1 = 0.5739 | 1124.05 | –
288.15 K, x1 = 0.58 | 1124.13 | –
288.15 K, x1 = 0.6337 | – | 1667
288.15 K, x1 = 0.6465 | 1124.97 | –
288.15 K, x1 = 0.651 | 1125.02 | –
288.15 K, x1 = 0.7008 | 1125.51 | –
288.15 K, x1 = 0.745 | – | 1657.9
288.15 K, x1 = 0.7471 | 1125.9 | –
288.15 K, x1 = 0.7677 | 1126.06 | –
288.15 K, x1 = 0.82 | 1126.42 | –
288.15 K, x1 = 0.8623 | 1126.68 | –
288.15 K, x1 = 0.8792 | 1126.78 | –
288.15 K, x1 = 0.8795 | – | 1649.6
288.15 K, x1 = 0.8975 | 1126.88 | –
288.15 K, x1 = 0.9203 | 1127.01 | –
288.15 K, x1 = 0.9514 | 1127.17 | –
288.15 K, x1 = 0.9612 | – | 1645.9
288.15 K, x1 = 0.9692 | 1127.27 | –
288.15 K, x1 = 1 | 1127.43 | 1643.9
293.15 K, x1 = 0.000681 | – | 1485.6
293.15 K, x1 = 0.002463 | – | 1494
293.15 K, x1 = 0.005001 | – | 1505.7
293.15 K, x1 = 0.007787 | – | 1518
293.15 K, x1 = 0.01463 | – | 1546.1
293.15 K, x1 = 0.02045 | – | 1567.9
293.15 K, x1 = 0.0276 | – | 1592.1
293.15 K, x1 = 0.03276 | – | 1608
293.15 K, x1 = 0.0418 | – | 1632.7
293.15 K, x1 = 0.04898 | – | 1649.9
293.15 K, x1 = 0.05561 | – | 1664
293.15 K, x1 = 0.06315 | – | 1678
293.15 K, x1 = 0.0678 | – | 1685.8
293.15 K, x1 = 0.0736 | – | 1694.6
293.15 K, x1 = 0.08161 | – | 1705.1
293.15 K, x1 = 0.08886 | – | 1713.2
293.15 K, x1 = 0.09701 | – | 1721
293.15 K, x1 = 0.1043 | – | 1726.7
293.15 K, x1 = 0.1091 | – | 1730
293.15 K, x1 = 0.1142 | – | 1733
293.15 K, x1 = 0.12 | – | 1735.9
293.15 K, x1 = 0.1325 | – | 1740.6
293.15 K, x1 = 0.1374 | – | 1741.9
293.15 K, x1 = 0.1445 | – | 1743.3
